This is an account of results in US10018637B2, “Methods for treating inflammatory and other diseases and the use of biomarkers as predictors of clinical sensitivity to treatment with apremilast” (CELGENE INTERNATIONAL II SARL, priority 2015, dated 2018).

The test system of test [1] is ankylosing spondylitis patients. As to the kind of experiment: Response of ankylosing spondylitis patients to apremilast treatment, by biomarker-defined patient group. It is filed as in vivo, human. The procedure: In this example, a group of ankylosing spondylitis patients was identified based on expression profile of 49 biomarkers as being more likely to be responsive to a treatment with apremilast. In particular, Myriad RBM inflammation MAP biomarker panel (having 49 biomarkers) was used to profile 280 patient samples in the study, among which 255 patient samples produced measurable biomarker levels. In these 255 patient samples, 95 patient samples were treated with 20 mg apremilast (“Apremilast 20 mg Arm Group”). Within the Apremilast 20 mg Arm Group, 36 patient samples were responsive to the treatment and 59 patient samples were not responsive to the treatment. 80 patient samples were treated with 30 mg apremilast (“Apremilast 30 mg Arm Group”). Within Apremilast 30 mg Arm Group, 31 patient samples were responsive to the treatment and 49 patient samples were not responsive to the treatment. The remaining 80 patient samples were control samples (placebo arm).
Unsupervised clustering was then used to analyze the biomarker expression profiles for these patient samples based on the 49 biomarkers (consensus clustering/distance (1-PCor)/Ward linkage method). These 49 biomarkers were Alpha-1-Antitrypsin, Alpha-2-Macroglobulin, Beta-2-Microglobulin, Brain-Derived Neurotrophic Factor, C-Reactive Protein, Complement C3, Eotaxin-1, Factor VII, Ferritin, Fibrinogen, Granulocyte-Macrophage Colony-Stimulating Factor, Haptoglobin, Intercellular Adhesion Molecule 1, Interferon gamma, Interleukin-1 alpha, Interleukin-1 beta, Interleukin-1 receptor antagonist, Interleukin-10, Interleukin-12 Subunit p40, Interleukin-12 Subunit p70, Interleukin-15, Interleukin-17, Interleukin-2, Interleukin-23, Interleukin-3, Interleukin-4, Interleukin-5, Interleukin-6, Interleukin-7, Interleukin-8, Macrophage Inflammatory Protein-1 alpha, Macrophage Inflammatory Protein-1 beta, Matrix Metalloproteinase-3, Matrix Metalloproteinase-9, MCP1, Stem Cell Factor, T-Cell-Specific Protein RANTES, Tissue Inhibitor of Metalloproteinases, Tumor Necrosis Factor alpha, Tumor Necrosis Factor beta, Tumor necrosis factor receptor 2, Vascular Cell Adhesion Molecule-1, Vascular Endothelial Growth Factor, Vitamin D-Binding Protein, von Willebrand Factor, Osteoprotegerin, Interleukin-18, RANKL, and Sclerostin.
The results are shown in the plot of FIG. 1A. As shown, a group of 50 patients (cluster 4) were identified as representing about 30% of the total treatment arm population. […] In particular, within this group of 50 patients, the response rate was about 54%, higher than the response rate in the remaining patients which was about 31%.
Each biomarker was then further analyzed for its association with the cluster 4 patient group. MCP1 cytokine was identified as being able to most strongly differentiate the cluster 4 group with the remaining patients. […] The threshold derived from the mid-point (or average) of the median of MCP1 low cluster and the median of non MCP1 low patients was 93.5 pg/ml (see the dash line in the right panel of FIG. 2A).
When the threshold was calculated as the mid-point between median MCP1 level in cluster 4 patient group and median MCP1 level in the remaining patients, the threshold level was 93.5 pg/ml.
A third method used to calculate a MCP1 threshold level was by calculating the mean of thresholds obtained from 10-fold cross validation (discussed above). In particular, each fold provided an optimal threshold according to the AUC metric when classifying for cluster membership. Then, the mean value of the 10 thresholds was calculated. Using this method, the threshold of MCP1 was calculated as 75.63 pg/ml. With this more restrictive learned threshold, the population selected into the MCP1 low group decreased while the response rate of the MCP1 low sub-group increased.

The next test has as its system Ankylosing Spondylitis. The note with it: after 24 weeks, largest study trial; placebo 22%; cited from earlier work.

Turning to `CCOc1cc([C@@H](CS(C)(=O)=O)N2C(=O)c3cccc(NC(C)=O)c3C2=O)ccc1OC` [apremilast, (+)-2-[1-(3-ethoxy-4-methoxyphenyl)-2-methylsulfonylethyl]-4-acetylaminoisoindoline-1,3-dione], the “patient samples responsive to the treatment” value in test [1] (Apremilast 20 mg Arm Group, 95 patient samples) came out at 36; in test [1] (Apremilast 30 mg Arm Group, 80 patient samples), 31. The response rate in test [1] (MCP1 low group, threshold 75.63 pg/ml, apremilast 30 mg arm (22% of the patients)) is given as 67%; in test [1] (MCP1 low group, threshold 93.5 pg/ml, apremilast 30 mg arm (45% of the patients)), 56%; in test [1] (MCP1 low group, threshold 93.5 pg/ml, both 20 mg and 30 mg arms (36% of the patients)) it was 49%; in test [1] (cluster 4 (MCP1 low patient group), 50 patients, 20 mg or 30 mg apremilast), “about 54%”; in test [1] (cluster 4 patients receiving 30 mg apremilast (25 patients)), 64%; in test [1] (patient subgroup differentiated by MCP1 level (14% of total population), apremilast arm 20 mg or 30 mg, FIG. 2B), “about 62.5%”. Also, the response rate result in test [1] (patient subgroup differentiated by MCP1 level (20% of apremilast 30 mg arm), 30 mg apremilast, FIG. 2C) was “about 66.6%”; in test [1] (remaining patients (not cluster 4), treatment arms), “about 31%”; in test [1] (remaining patients in the Apremilast 30 mg Arm Group (not cluster 4)) it was 27%. The compound also returned a patients responded in test [1] (cluster 4 patients receiving 30 mg apremilast, out of 25) of 16.

Turning to etanercept, in the test on Ankylosing Spondylitis, the “response rate (ASAS 20 response criteria)” value was 57%.
